The source of these data is patent US9090601B2, “Thiazole derivatives” (Millennium Pharmaceuticals, Inc., priority 2009, dated 2015).

Structures are written as SMILES.

Common to all, as to format: biochemical
One test addresses T1, PI3Kalpha (Homo sapiens, UniProt P42336).
T1 construct: His (N); host or cells: baculovirus expression system (insect cells)
The experiment in a line: PI3K alpha enzyme assay (HTRF). The settings on record: PI3Kalpha 0.4875 nM, ATP 25 uM, di-C8 PI(4,5)P2 3.5 uM, 30 min room temperature; read-out: IC50 (inhibit PI3Kalpha). The procedure:
0.5 uL compounds in DMSO are added to wells of a 384 well microtitre plate (Corning 3575). At room temperature: 10 ul PI3K reaction buffer (50 mM Hepes, 5 mM DTT, 150 mM NaCl, 10 mM beta-glycerophosphate, 10 mM MgCl2, 0.25 mM sodium cholate and 0.001% CHAPS, pH 7.00) containing ATP (25 uM, Promega) is added followed immediately by 10 ul PI3K reaction buffer containing di-C8 PI(4,5)P2 (3.5 uM, CellSignals) and PI3Kalpha (0.4875 nM, Millennium Protein Sciences Group) and the mixture is incubated with shaking at room temperature for 30 minutes. Then 5 ul PI3K stop mix (50 mM Hepes, 5 mM DTT, 150 mM NaCl, 0.01% Tween-20, 15 mM EDTA and 25 nM biotin-PI(3,4,5)P3 (Echelon) is added to quench the reaction followed immediately by addition of 5 ul HTRF detection mix (50 mM Hepes, 5 mM DTT, 150 mM NaCl, 0.01% Tween-20, 40 mM KF, 10 nM GST:GRP-1 PH domain (Millennium Protein Sciences Group), 15 nM Streptavidin-XL (CisBio) and 0.375 nM anti-GST Eu++ antibody (CisBio) at pH 7.00). The plates are then incubated for 1 hour at room temperature with shaking and then read on a BMG PheraStar Plus reader.
For orientation: Time-resolved FRET reads energy transfer from a long-lived donor to a nearby acceptor.

Test [1] has as its target T2, hPI3Kα (p110alpha catalytic subunit and human p85alpha regulatory subunit complex) (Homo sapiens, UniProt P42336).
T2 construct: made in house; host or cells: Sf21 insect cells (baculovirus, Bac-to-Bac)
The experiment in a line: Human PI3Kα enzyme assay (Phospholipid FlashPlate, γ-[33P] ATP). The settings on record: PI3Kα enzyme activity, compound at 1.0 μm, 500 nM ATP. How it is done: hPIK3CA; p110alpha catalytic subunit (GenBank ACCESSION# NM_006218) and hPIK3R1; p85alpha regulatory subunit (GenBank ACCESSION# NM_181523) are cloned from human cDNA library (Clonetec).
Human p110alpha catalytic subunit gene and human p85alpha regulatory subunit gene are respectively inserted into pFASTBacHT (Invitrogen), and each gene was introduced into a baculovirus vector using a Bac-to-Bac system (Invitrogen). Both viruses are injected to insect cultured cells Sf21 to allow coexpression of proteins. p110alpha catalytic subunit and human p85alpha regulatory subunit complex (hPI3Kα) are purified from the cell extract using a Ni chelate column.
L-alpha-Phosphatidyl-D-myo-inositol 4,5-Diphosphate (diC16) [PI(4,5)P2, Wako Pure Chemical Industries, Ltd.] is suspended in Phospholipid FlashPlate Coating Buffer (PerkinElmer) and applied onto Phospholipid FlashPlate PLUS. PI3K reaction buffer (50 mM Tris-HCl, pH 7.4, 5 mM MgCl2, 1 mM DTT, 0.005% BSA) containing hPI3Kα, γ-[^33P] ATP (PerkinElmer) and cold 500 nM ATP is added to the wells on this plate and the mixture is reacted at room temperature for 1 hr. 50 mM EDTA solution is added to quench the reaction, and the wells are washed with PBS. The radioactivity remaining in the well is measured as enzyme activity by TopCount (PerkinElmer).

The target in the next test is T3, human mTOR (Homo sapiens, UniProt P42345).
T3 construct: purchased Invitrogen
T3 sequence (P42345 1360-2549 limits assumed): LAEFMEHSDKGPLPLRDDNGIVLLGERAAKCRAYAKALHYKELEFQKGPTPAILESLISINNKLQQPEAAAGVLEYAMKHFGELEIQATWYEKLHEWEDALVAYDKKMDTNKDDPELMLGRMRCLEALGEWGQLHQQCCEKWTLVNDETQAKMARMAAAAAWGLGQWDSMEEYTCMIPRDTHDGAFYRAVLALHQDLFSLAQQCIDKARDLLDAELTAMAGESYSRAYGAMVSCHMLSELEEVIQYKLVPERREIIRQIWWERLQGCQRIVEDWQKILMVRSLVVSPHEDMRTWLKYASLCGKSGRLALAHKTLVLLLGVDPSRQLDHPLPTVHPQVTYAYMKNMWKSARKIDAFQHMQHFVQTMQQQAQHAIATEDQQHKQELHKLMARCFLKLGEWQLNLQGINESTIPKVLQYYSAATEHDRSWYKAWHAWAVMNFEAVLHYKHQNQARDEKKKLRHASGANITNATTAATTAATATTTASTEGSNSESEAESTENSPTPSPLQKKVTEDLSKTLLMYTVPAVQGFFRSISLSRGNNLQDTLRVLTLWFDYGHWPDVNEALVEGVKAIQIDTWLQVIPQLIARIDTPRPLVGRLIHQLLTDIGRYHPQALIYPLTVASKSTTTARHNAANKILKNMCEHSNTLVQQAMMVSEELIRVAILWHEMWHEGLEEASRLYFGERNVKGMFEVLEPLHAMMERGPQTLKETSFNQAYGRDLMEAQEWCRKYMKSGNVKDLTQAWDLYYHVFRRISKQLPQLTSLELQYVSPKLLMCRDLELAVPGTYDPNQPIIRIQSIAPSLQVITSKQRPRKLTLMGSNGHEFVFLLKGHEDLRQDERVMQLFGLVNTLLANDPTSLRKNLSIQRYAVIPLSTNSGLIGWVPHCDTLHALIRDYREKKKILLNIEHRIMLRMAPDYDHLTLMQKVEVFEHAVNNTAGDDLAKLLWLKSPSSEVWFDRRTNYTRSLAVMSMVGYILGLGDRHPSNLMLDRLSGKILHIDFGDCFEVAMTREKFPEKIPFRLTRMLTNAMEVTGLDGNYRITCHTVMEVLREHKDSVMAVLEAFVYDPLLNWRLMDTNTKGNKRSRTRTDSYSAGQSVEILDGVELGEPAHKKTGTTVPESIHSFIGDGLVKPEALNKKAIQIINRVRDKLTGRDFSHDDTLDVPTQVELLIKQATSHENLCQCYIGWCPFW
The experiment in a line: Human mTOR enzyme assay (Z'-lyte peptide FRET). The following applies: mTOR enzyme activity, compound at 1.0 μm, 10 μM ATP. The procedure:
mTOR reaction buffer (50 mM HEPES, pH 7.5, 5 mM MgCl2, 5 mM MnCl2, 1 mM EGTA, 1 mM DTT, 0.01% BRIJ-35, 0.01% NaN3) containing human mTOR (Invitrogen), 10 μM ATP and 2 μM Z′-lyte 11Ser/Thr peptide (Invitrogen) is added to the well and the mixture is reacted at room temperature for 1 hr.
Development Buffer containing Development Reagent B (for Z′-lyte peptide, Invitrogen) was added, and the mixture is reacted at room temperature for 30 min. The fluorescence at 520 nm and fluorescence at 445 nm are measured with excitation at 400 nm using SpectraMax M5e (Molecular Device). The ratio of the obtained 445 nm fluorescence value/520 nm fluorescence value is calculated, and changes in the fluorescence resonance energy transfer (FRET) of Z′-lyte peptide are detected as the enzyme activity.

T1 sequence (P42336 whole entry): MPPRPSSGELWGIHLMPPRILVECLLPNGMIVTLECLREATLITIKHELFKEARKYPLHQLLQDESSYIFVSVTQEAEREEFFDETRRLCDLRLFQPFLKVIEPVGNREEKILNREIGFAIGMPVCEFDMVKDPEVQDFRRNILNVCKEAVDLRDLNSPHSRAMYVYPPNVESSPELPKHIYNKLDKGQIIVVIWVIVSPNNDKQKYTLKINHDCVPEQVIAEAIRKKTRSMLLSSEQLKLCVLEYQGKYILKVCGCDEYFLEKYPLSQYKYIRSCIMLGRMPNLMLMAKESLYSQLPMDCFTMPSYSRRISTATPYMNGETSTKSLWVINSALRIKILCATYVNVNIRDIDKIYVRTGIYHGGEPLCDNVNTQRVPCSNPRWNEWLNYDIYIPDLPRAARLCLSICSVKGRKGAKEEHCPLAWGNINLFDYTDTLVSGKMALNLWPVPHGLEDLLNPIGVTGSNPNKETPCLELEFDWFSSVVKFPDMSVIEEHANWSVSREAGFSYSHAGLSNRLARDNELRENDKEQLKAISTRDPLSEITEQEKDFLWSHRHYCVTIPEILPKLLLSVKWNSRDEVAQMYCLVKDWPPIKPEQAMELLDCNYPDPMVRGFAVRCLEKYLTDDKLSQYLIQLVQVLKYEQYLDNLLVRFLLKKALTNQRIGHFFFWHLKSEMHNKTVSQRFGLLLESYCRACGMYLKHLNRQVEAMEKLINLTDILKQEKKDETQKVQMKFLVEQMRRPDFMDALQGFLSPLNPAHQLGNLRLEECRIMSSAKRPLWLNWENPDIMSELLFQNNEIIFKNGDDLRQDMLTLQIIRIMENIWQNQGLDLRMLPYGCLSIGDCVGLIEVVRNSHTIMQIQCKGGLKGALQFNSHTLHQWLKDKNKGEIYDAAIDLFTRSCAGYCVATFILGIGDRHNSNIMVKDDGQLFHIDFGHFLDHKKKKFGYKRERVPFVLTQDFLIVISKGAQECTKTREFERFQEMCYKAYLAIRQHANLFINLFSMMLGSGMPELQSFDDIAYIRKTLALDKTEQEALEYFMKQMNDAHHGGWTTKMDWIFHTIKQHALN
T1 sequence (P27986 whole entry partner): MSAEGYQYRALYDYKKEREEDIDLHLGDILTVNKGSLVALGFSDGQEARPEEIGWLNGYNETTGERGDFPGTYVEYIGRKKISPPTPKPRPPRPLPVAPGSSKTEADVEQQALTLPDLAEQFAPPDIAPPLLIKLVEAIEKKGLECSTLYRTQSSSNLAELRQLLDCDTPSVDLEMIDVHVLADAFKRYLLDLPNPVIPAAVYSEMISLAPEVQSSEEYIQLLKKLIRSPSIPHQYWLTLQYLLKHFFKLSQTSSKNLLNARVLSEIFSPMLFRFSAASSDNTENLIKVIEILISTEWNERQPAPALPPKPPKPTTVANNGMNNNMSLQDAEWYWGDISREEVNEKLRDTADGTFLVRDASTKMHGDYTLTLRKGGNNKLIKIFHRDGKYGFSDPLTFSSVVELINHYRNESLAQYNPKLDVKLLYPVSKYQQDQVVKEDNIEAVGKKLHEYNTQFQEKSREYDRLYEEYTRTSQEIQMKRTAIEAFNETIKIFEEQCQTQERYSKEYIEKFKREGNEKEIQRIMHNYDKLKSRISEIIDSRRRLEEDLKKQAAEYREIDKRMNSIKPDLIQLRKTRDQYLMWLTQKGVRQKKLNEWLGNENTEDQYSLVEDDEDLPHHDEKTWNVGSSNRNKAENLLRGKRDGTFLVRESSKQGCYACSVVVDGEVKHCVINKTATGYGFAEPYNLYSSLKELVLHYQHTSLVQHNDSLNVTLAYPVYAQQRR
T2 sequence (P42336 whole entry): as the sequence (P42336 whole entry) above
T2 sequence (P27986 whole entry partner): as the sequence (P27986 whole entry partner) above

In general, IC50 refers to the concentration needed to halve the response being measured. Turning to `Cc1nn2c(c1-c1nc(C3CCCCC3)c(-c3nnc[nH]3)s1)CCCC2` [Example 19-B, 3-[4-cyclohexyl-5-(4H-1,2,4-triazol-3-yl)-1,3-thiazol-2-yl]-2-methyl-4,5,6,7-tetrahydropyrazolo[1,5-a]pyridine], the IC50 on PI3Kalpha was greater than 1000 nM.
As for `CC(=O)Nc1cc(-c2nc(-c3ccc(Oc4ccccc4)cc3)c(-c3ncc[nH]3)s2)ccn1` [Example 60-C], the IC50 on PI3Kalpha was greater than 1000 nM.
Same read-out and setting: the figure for `COCCNC(=O)c1sc(-c2ccnc(NC(C)=O)c2)nc1-c1ccccc1Cl` [Example 64-C] is greater than 1000 nM.
On to `C=CCOc1nc(-c2c(C)nn3ccccc23)sc1-c1nnc[nH]1` [Example 27-B, 2-methyl-3-[4-(prop-2-en-1-yloxy)-5-(4H-1,2,4-triazol-3-yl)-1,3-thiazol-2-yl]pyrazolo[1,5-a]pyridine], for which the “Inhibitory rate at 1.0 μm (%)” value in test [1] came out at 100%.
Consider `COc1cnc(NC(C)=O)cc1-c1nc(-c2ccc(Cl)cc2Cl)c(-c2ncc[nH]2)s1` [Example 18-C], for which the IC50 at PI3Kalpha was greater than 1000 nM.
In the case of `Cc1nn2ccc(OCCO)cc2c1-c1nc(-c2ccccc2)c(-c2nnc[nH]2)s1` [Example 33-B, 2-({2-methyl-3-[4-phenyl-5-(4H-1,2,4-triazol-3-yl)-1,3-thiazol-2-yl]pyrazolo[1,5-a]pyridin-5-yl}oxy)ethanol], the “Inhibitory rate at 1.0 μm (%)” value at human mTOR was 91%.
For the compound `CC(=O)Nc1cc(-c2nc(-c3ccc(-c4nnc(C)o4)cc3)c(-c3ncc[nH]3)s2)ccn1` [Example 8-C], at PI3Kalpha, the IC50 is greater than 1000 nM.
Same read-out and setting: under `CC(=O)Nc1cc(-c2nc(-c3ccccc3Cl)c(C(=O)NC[C@@H](C)O)s2)ccn1` [Example 4-C] stands greater than 1000 nM.
Same read-out and setting: the figure for `CC(=O)Nc1cccc(-c2nc(-c3ccnc(NC(C)=O)c3)sc2-c2ncc[nH]2)c1` [Example 72-C] is greater than 1000 nM.
On to `Cc1nn2ccsc2c1-c1nc(-c2ccccc2)c(-c2nnc[nH]2)s1` [Example 35-B, 6-methyl-7-[4-phenyl-5-(4H-1,2,4-triazol-3-yl)-1,3-thiazol-2-yl]pyrazolo[5,1-b][1,3]thiazole acetate], for which, in test [1], the “Inhibitory rate at 1.0 μm (%)” value is listed as 101%.
Take `CC(=O)Nc1cc(-c2nc(-c3ccccc3Cl)c(-c3nnc[nH]3)s2)c(C)cn1` [Example 65-C]: the half-maximal inhibitory concentration (IC50) on PI3Kalpha was greater than 1000 nM.
Same read-out and setting: the figure for `CC(=O)Nc1cc(-c2nc(-c3c(C)cccc3C)c(-c3nnc[nH]3)s2)ccn1` [Example 56-C, N-{4-[4-(2,6-dimethylphenyl)-5-(4H-1,2,4-triazol-3-yl)-1,3-thiazol-2-yl]pyridin-2-yl}acetamide] is greater than 1000 nM; for `CCOc1nc(-c2ccnc(NC(=O)c3sccc3C)c2)sc1-c1nnc[nH]1` [Example 52-B, N-{4-[4-ethoxy-5-(4H-1,2,4-triazol-3-yl)-1,3-thiazol-2-yl]pyridin-2-yl}-3-methylthiophene-2-carboxamide] it is greater than 1000 nM.
For `CC(=O)Nc1cc(-c2nc(-c3ccccc3)c(-c3ncc[nH]3)s2)c(C)cn1` [Example 36-C], the half-inhibitory concentration (IC50) on PI3Kalpha is greater than 1000 nM.
`CC(=O)Nc1cc(-c2nc(Br)c(-c3ncc[nH]3)s2)ccn1` [Example 58-C]: the half-inhibitory concentration (IC50) at PI3Kalpha was greater than 1000 nM.
With `CC(=O)Nc1cc(-c2nc(-c3ccc(F)c(CO)c3)c(-c3ncc[nH]3)s2)ccn1` [Example 47-C], the IC50 on PI3Kalpha was greater than 1000 nM.
Still for that read-out and setting: under `CC(=O)Nc1cc(-c2nc(-c3cccc(-n4cccn4)c3)c(-c3ncc[nH]3)s2)ccn1` [Example 14-C] stands greater than 1000 nM; under `CCOc1nc(-c2ccnc(NC(=O)C3CCCCC3)c2)sc1-c1nnc[nH]1` [Example 50-B, N-{4-[4-ethoxy-5-(4H-1,2,4-triazol-3-yl)-1,3-thiazol-2-yl]pyridin-2-yl}cyclohexanecarboxamide], greater than 1000 nM.
Same read-out and setting: the figure for `CCOc1nc(-c2ccnc(NC(=O)c3c(F)cccc3F)c2)sc1-c1nnc[nH]1` [Example 71-B, N-{4-[4-ethoxy-5-(4H-1,2,4-triazol-3-yl)-1,3-thiazol-2-yl]pyridin-2-yl}-2,6-difluorobenzamide] is greater than 1000 nM; for `Cc1nc2cccnn2c1-c1nc(-c2ccccc2)c(-c2nnc[nH]2)s1` [Example 41-B, 2-methyl-3-[4-phenyl-5-(4H-1,2,4-triazol-3-yl)-1,3-thiazol-2-yl]imidazo[1,2-b]pyridazine] it is greater than 1000 nM; for `CC(=O)Nc1cc(-c2nc(-c3ccncc3)c(-c3ncc[nH]3)s2)ccn1` [Example 27-C] it is greater than 1000 nM.
With `COc1cccc(OC)c1-c1nc(-c2c(C)nn3ccccc23)sc1-c1nc[nH]n1` [Example 102-B, 3-[4-(2,6-dimethoxyphenyl)-5-(1H-1,2,4-triazol-3-yl)-1,3-thiazol-2-yl]-2-methylpyrazolo[1,5-a]pyridine], the IC50 on PI3Kalpha is greater than 1000 nM.
On the same count and under the same terms, under `CC(=O)Nc1cc(-c2nc(-c3ccccc3Cl)c(C(=O)NCCO)s2)ccn1` [Example 48-C, 2-[2-(acetylamino)pyridin-4-yl]-4-(2-chlorophenyl)-N-(2-hydroxyethyl)-1,3-thiazole-5-carboxamide] stands greater than 1000 nM.
Same read-out and setting: under `CC(=O)Nc1cc(-c2nc(-c3ccc(OC(C)C)cc3)c(-c3ncc[nH]3)s2)ccn1` [Example 46-C] stands greater than 1000 nM; under `CCOc1nc(-c2ccnc(NC(=O)C(C)(C)C)c2)sc1-c1nnc[nH]1` [Example 66-B, N-{4-[4-ethoxy-5-(4H-1,2,4-triazol-3-yl)-1,3-thiazol-2-yl]pyridin-2-yl}-2,2-dimethylpropanamide], greater than 1000 nM.
With `COc1ccc(-c2nc(-c3ccnc(NC(C)=O)c3)sc2-c2ncc[nH]2)cc1OC` [Example 16-C], at PI3Kalpha, the IC50 was greater than 1000 nM.
Take `Cc1nn2ccc(OCCN3CCCCC3)cc2c1-c1nc(-c2ccccc2)c(-c2nnc[nH]2)s1` [Example 32-B, 2-methyl-3-[4-phenyl-5-(4H-1,2,4-triazol-3-yl)-1,3-thiazol-2-yl]-5-(2-piperidin-1-ylethoxy)pyrazolo[1,5-a]pyridine di-p-toluenesulfonate]: the “Inhibitory rate at 1.0 μm (%)” value in test [1] stood at 100%.
Consider `COc1ccc(-c2nc(-c3ccnc(NC(C)=O)c3)sc2-c2ncc[nH]2)cc1` [Example 62-C], for which the IC50 at PI3Kalpha is greater than 1000 nM.
On the same count and under the same terms, under `CC(=O)Nc1cc(-c2nc(-c3ccccc3Cl)c(-c3ncc[nH]3)s2)c(C)cn1` [Example 30-C] stands greater than 1000 nM.
Still for that read-out and setting: the figure for `CCOc1nc(-c2ccnc(NC(=O)c3ccccc3C)c2)sc1-c1nnc[nH]1` [Example 68-B, N-{4-[4-ethoxy-5-(4H-1,2,4-triazol-3-yl)-1,3-thiazol-2-yl]pyridin-2-yl}-2-methylbenzamide] is greater than 1000 nM.
Consider `CCOc1nc(-c2ccnc(NC(=O)c3ccncc3)c2)sc1-c1nnc[nH]1` [Example 67-B, N-{4-[4-ethoxy-5-(4H-1,2,4-triazol-3-yl)-1,3-thiazol-2-yl]pyridin-2-yl}pyridine-4-carboxamide], for which, at PI3Kalpha, the concentration for half-maximal inhibition (IC50) was greater than 1000 nM.
For `CCOc1nc(-c2ccnc(NC(=O)c3ccccn3)c2)sc1-c1nnc[nH]1` [Example 49-B, N-{4-[4-ethoxy-5-(4H-1,2,4-triazol-3-yl)-1,3-thiazol-2-yl]pyridin-2-yl}pyridine-2-carboxamide], the half-inhibitory concentration (IC50) on PI3Kalpha is greater than 1000 nM.
Still for that read-out and setting: under `CCOc1nc(-c2ccnc(NC(=O)c3ccccc3Cl)c2)sc1-c1nnc[nH]1` [Example 54-B, 2-chloro-N-{4-[4-ethoxy-5-(4H-1,2,4-triazol-3-yl)-1,3-thiazol-2-yl]pyridin-2-yl}benzamide] stands greater than 1000 nM.
